Marks after values point to notes of the source that are not given here.
Key:
CC1/85 cl.6 = assay: Anti-HIV-1 assay, drug-naive clinical strain CC1/85 cl.6; assay type: cell-based; settings: CC1/85 cl.6, drug naive R5-HIV-1 clinical strain; read-out: IC50
Description: (§1) MAGI-CCR5 cells[18] were maintained in DMEM supplemented with 10% fetal calf serum (FCS: Gemini Bio-Products, West Sacramento, CA), 200 μg/ml G418, 100 μg/ml hygromycin B, and 100 μg/ml zeomycin. The Chinese hamster ovary (CHO) cells expressing CCR5[19] were maintained in Ham’s F-12 medium (GIBCO-BRL, Rockville, MD) supplemented with 10% FCS, 50 U/ml penicillin, and 50 μg/ml streptomycin in the presence of 5 μg/ml blasticidin S hydrochloride. TZM-bl cells were obtained from the NIH AIDS Reagent Program, and were cultured in DMEM with 10% FCS. Peripheral blood mononuclear cells (PBMCs) were isolated from buffy coats of HIV-1 seronegative individuals, and were activated with 10 μg/ml phytohemagglutinin (PHA) prior to use[16]. A laboratory wild-type R5-HIV-1 strain (HIV-1Ba-L)[37] was employed for drug susceptibility assays. AD101 (experimental CCR5 inhibitor) and VVC-resistant HIV clones[7],[8] were provided by Dr. John P. Moore of Cornell University for this study. The clones were propagated with activated PBMCs, and were used for the assays. A clinical HIV-1 strain, HIV-1KP-5pc, and an MVC-resistant isolate, HIV-1KP-5mvcR, were prepared and used for antiviral assays, as previously described[10],[38]. The following reagents (plasmids) for T/F HIV-1 viruses[22],[24] were obtained through the NIH AIDS Reagent Program, Division of AIDS, NIAID, NIH: pCH040.c/2625 (cat# 11740), pCH106.c/2633 (cat# 11743), pTHRO.c/2626 (cat# 11745), and pCH058.c/2960 (cat# 11856), from Dr. John Kappes and Dr. Christina Ochsenbauer.
(§2) Antiviral assays using PHA-PBMCs (p24 assay) were conducted as previously reported[16],[38]. In brief, PHA-PBMCs (1 × 10^6/ml) were exposed to 50 TCID50 of HIV-1Ba-L or drug-resistant HIV-1 infectious clones in the presence or absence of various concentrations of drugs; 10-fold serial dilutions were performed in 96-well microculture plates. The amount of p24 antigens produced by the cells was determined on day 7 in the culture via a commercially available ELISA kit (PerkinElmer). The p24 production level in drug-free control cell cultures was used as the reference. […] Antiviral assays using MAGI-CCR5 cells (MAGI assay) were conducted as previously reported[16],[39]. Single-round virus infection assays using TZM-bl cells infected with R5-HIV-1s (HIV-1YU2, HIV-1KP-5pc, and HIV-1KP-5mvcR)[10] were also conducted as previously described.

pTHRO.c/2626 = assay: MAGI assay, T/F HIV-1 clone pTHRO.c/2626; assay type: cell-based; settings: T/F clone pTHRO.c/2626, MAGI assay, mean ± SD; read-out: IC50
From the text: (§3) We also examined the activity of GRL-compounds against Transmitter/founder (T/F) HIV-1 viruses. T/F viruses are involved in the initial infection. It is considered that T/F viruses virtually always use CCR5 rather than CXCR4 and infect T cells but not macrophages because […] of CD4 is needed to mediate virus entry for the initial transmission[20]–[24]. […] We obtained four HIV-1 T/F infectious clones. We determined the antiviral activity of GRL-117C, GRL-10007C and GRL-10018C on these HIV-1 clones using MAGI assay.
as §1, with “A clinical HIV-1 strain, HIV-1KP-5pc, and an MVC-resistant isolate, HIV-1KP-5mvcR, were prepared and used for antiviral assays, as previously described[10],[38].” left out
as §2

HIV-1YU2 = assay: TZM-bl single-round infection assay, HIV-1YU2; assay type: cell-based; settings: YU2, drug-sensitive, mean ± SD
Description: as §1, §2

R5-HIV-1Ba-L = assay: MAGI assay using MAGI/CCR5 cells and R5-HIV-1Ba-L; assay type: cell-based; settings: Ba-L (MAGI)
Description: as §1, §2

HIV-1KP-5mvcR = assay: TZM-bl single-round infection assay, MVC-resistant HIV-1KP-5mvcR; assay type: cell-based; settings: KP-5mvcR, MVC-resistant, TZM-bl assay, mean ± SD
Description: as §1, §2

pCH040.c/2625 = assay: MAGI assay, T/F HIV-1 clone pCH040.c/2625; assay type: cell-based; settings: T/F clone pCH040.c/2625, MAGI assay, mean ± SD; read-out: IC50
From the text: as §3
as §1, with “A clinical HIV-1 strain, HIV-1KP-5pc, and an MVC-resistant isolate, HIV-1KP-5mvcR, were prepared and used for antiviral assays, as previously described[10],[38].” left out
as §2

[1] = system: CC101.19 cl.7 (AD101 resistant); assay: microbe, parasite or virus in culture; assay type: cell-based, HIV-1
Description: as §1, §2

[2] = system: D1/85.16 cl.23 (VVC resistant); assay: microbe, parasite or virus in culture; assay type: cell-based, HIV-1
Description: as §1, §2

[3] = system: Transmitter/founder (T/F) HIV-1 viruses; assay: MAGI assay, all four T/F viruses (range); assay type: cell-based; settings: four T/F HIV-1 clones, MAGI assay; read-out: IC50 values (range over four T/F viruses)
From the text: as §3
MAGI-CCR5 cells[18] were maintained in DMEM supplemented with 10% fetal calf serum (FCS: Gemini Bio-Products, West Sacramento, CA), 200 μg/ml G418, 100 μg/ml hygromycin B, and 100 μg/ml zeomycin. The Chinese hamster ovary (CHO) cells expressing CCR5[19] were maintained in Ham’s F-12 medium (GIBCO-BRL, Rockville, MD) supplemented with 10% FCS, 50 U/ml penicillin, and 50 μg/ml streptomycin in the presence of 5 μg/ml blasticidin S hydrochloride. TZM-bl cells were obtained from the NIH AIDS Reagent Program, and were cultured in DMEM with 10% FCS. […]
Antiviral assays using PHA-PBMCs (p24 assay) were conducted as previously reported[16],[38]. […] The amount of p24 antigens produced by the cells was determined on day 7 in the culture via a commercially available ELISA kit (PerkinElmer). […]

CC1/85 cl.7 = assay: Anti-HIV-1 assay, drug-naive clinical strain CC1/85 cl.7; assay type: cell-based; settings: CC1/85 cl.7, drug naive R5-HIV-1 clinical strain
Description: as §1, §2

R5-HIV-1BaL = assay: p24 assay using PBMCs and R5-HIV-1BaL; assay type: cell-based; settings: Ba-L (PBMCs), day 7
Description: as §1, §2

HIV-1KP-5pc = assay: TZM-bl single-round infection assay, HIV-1KP-5pc; assay type: cell-based; settings: KP-5pc, drug-sensitive clinical strain, TZM-bl assay, mean ± SD
Description: as §1, §2

pCH058.c/2960 = assay: MAGI assay, T/F HIV-1 clone pCH058.c/2960; assay type: cell-based; settings: T/F clone pCH058.c/2960, MAGI assay, mean ± SD; read-out: IC50
From the text: as §3
as §1, with “A clinical HIV-1 strain, HIV-1KP-5pc, and an MVC-resistant isolate, HIV-1KP-5mvcR, were prepared and used for antiviral assays, as previously described[10],[38].” left out
as §2

pCH0.6.c/2633 = assay: MAGI assay, T/F HIV-1 clone pCH0.6.c/2633; assay type: cell-based; settings: T/F clone pCH0.6.c/2633, MAGI assay, mean ± SD; read-out: IC50
From the text: as §3
as §1, with “A clinical HIV-1 strain, HIV-1KP-5pc, and an MVC-resistant isolate, HIV-1KP-5mvcR, were prepared and used for antiviral assays, as previously described[10],[38].” left out
as §2

## Maraviroc [MVC]
CC1/85 cl.6
  IC50: 1.7 nM
pTHRO.c/2626
  IC50: 2.2 ± 0.8 nM
HIV-1YU2
  IC50: 3.5 ± 2.5 nM
  IC90: 15 nM
R5-HIV-1Ba-L
  IC50: 0.7 nM
  IC90: 6.4 nM
HIV-1KP-5mvcR; read-out: IC50
  IC50: 36 ± 28 nM
HIV-1KP-5mvcR; read-out: IC90 (converted)
  IC90: 236 nM
pCH040.c/2625
  IC50: 1.7 ± 0.1 nM
[1]; CC101.19 cl.7 (AD101 resistant) vs CC1/85 cl.7
  fold increases of IC50s compared to wild type (CC1/85 cl.7): (×15)^e fold
[1]; CC101.19 cl.7 (AD101 resistant), read-out: IC50
  IC50: 36.9 nM
[1]; CC101.19 cl.7 (AD101 resistant), read-out: IC90
  IC90: 486 nM
[2]; D1/85.16 cl.23 (VVC resistant) vs CC1/85 cl.7
  fold increases of IC50s compared to wild type (CC1/85 cl.7): (×11)^e fold
[2]; D1/85.16 cl.23 (VVC resistant), read-out: IC50
  IC50: 26.5 nM
[2]; D1/85.16 cl.23 (VVC resistant), read-out: IC90
  IC90: 376 nM
[3]
  IC50: 1.7 to 2.3 nM
CC1/85 cl.7; read-out: IC50
  IC50: 2.5 nM
CC1/85 cl.7; read-out: IC90
  IC90: 20.6 nM
R5-HIV-1BaL
  IC50: 4.5 nM
  IC90: 21.6 nM
HIV-1KP-5pc; read-out: IC50
  IC50: 8.5 ± 3.6 nM
HIV-1KP-5pc; read-out: IC90 (converted)
  IC90: 81 nM
pCH058.c/2960
  IC50: 1.9 ± 0.1 nM
pCH0.6.c/2633
  IC50: 2.3 ± 0.3 nM

Source: PMC6423129, “Activity and structural analysis of GRL-117C: a novel small molecule CCR5 inhibitor active against R5-tropic HIV-1s” (Scientific Reports, 2019)
